Results as given in US11802107B2, “Compounds and methods of use” (Signum Biosciences, Inc., priority 2017, dated 2023).
pIC50: −log10 of the molar value. Values after ≈ are worked out from the molar mass of the structure shown.

How the values were obtained:
IL-1b = assay: P. acnes-induced IL-1b protein on human PBMCs (ELISA); assay type: cell-based; details: PBMC, PBMCs + live P. acnes 1:1, test material 30 PM, 24 hours
Procedure: (§1) Cryopreserved human Peripheral Blood Mononuclear cells (PBMCs) from healthy adult donors were obtained from Zen Bio, Inc (Cat No. SER-PBMC-F). Cells were cultured in 12-well plates with lymphocyte media (Cat No. LYMPH-1) and incubated with test materials ([…]) and live P. acnes (ATCC® 6919TM) at 1:1 PBMC: P. acnes bacteria ratio for 24 hours at 37° C. and 5% CO2. After incubation, cell media supernatants were harvested and used to measure pro-inflammatory cytokine levels (IL-8, TNF-α, IL-1b, IL-17) using ELISA kits (BD Biosciences® #557966, #555212, #555244; R&D Systems® #DY317). Total RNA was extracted from cells using the RNAqueous® kit (Ambion®; Cat No. 1912) and cDNA was obtained using the High Capacity RNA-to-cDNA kit (Applied Biosystems®; Cat No. 4387406). Quantitative PCR (qPCR) was performed using the TaqMan® Fast Advanced Master Mix (Applied Biosystems®; Cat No. 4444556) and specific TaqMan®-probes human gene primers CXCL8 (IL-8), IL1B (IL-1b), TNF (TNF-α), IL17A (IL-17A) and GAPDH to calculate the relative gene fold expression change per treatment. Gene expression analysis was performed using the comparative Ct method (also known as the 2-[delta][delta]Ct) approach by comparing the Ct values of P. acnes-only treated cells with the untreated samples and normalized to GAPDH gene expression as endogenous housekeeping gene.

IL-17 = assay: Concanavalin-A-induced IL-17 on PBMCs; assay type: cell-based; details: Homo sapiens, PBMC, ConA, 24 hours, ELISA
DEFB4B (hBD2) = assay: NHEK antimicrobial peptide gene expression, hBD2; assay type: cell-based, human; details: 10 μM, 24 hours, qPCR, normalized to GAPDH
Procedure: Normal human epidermal keratinocytes (NHEKs) from neonatal donors were obtained from Thermo-Fisher (Cat No. C-001-5C). Cells were cultured in 6-well plates for 24 hours before treatments with EpiLife media (Cat No. MEPI500CA) supplemented with keratinocytes growth supplement (Cat No. 50015). On Day 2, media was removed and incubated with test materials (10 μM) for 24 hours at 37° C. and 5% CO2. On Day 3, total RNA was extracted from cells using the RNAqueous® kit (Ambion®; Cat No. 1912) and cDNA was obtained using the High Capacity RNA-to-cDNA kit (Applied Biosystems®; Cat No. 4387406). Quantitative PCR (qPCR) was performed using the TaqMan® Fast Advanced Master Mix (Applied Biosystems®; Cat No. 4444556) and specific TaqMan®-probes human gene primers DEFB4B (hBD2), DEFB103 (hBD3), HCAP18 and GAPDH to calculate the relative gene fold expression change per treatment. Gene expression analysis was performed using the comparative Ct method (also known as the 2-[delta][delta]Ct) approach by comparing the Ct values of the treated samples with the untreated samples and normalized to GAPDH gene expression as endogenous housekeeping gene. Results were represented as fold-expression/untreated cells.

P. acnes (ATCC 6919) = assay: Minimal bactericidal concentration (MBC) against P. acnes; assay type: cell-based, Propionibacterium acnes; details: Cutibacterium acnes, ATCC6919; P. acnes 10^7 CFU/mL, in PBS, anaerobic conditions
IL-22 = assay: Anti-CD3/CD28+IL-4-induced IL-22 on PBMCs; assay type: cell-based; details: Homo sapiens, PBMC, anti-CD3/CD28 beads + 50 ng/mL IL-4, 48 hours, ELISA, read-out: TCR/IL-4-PBMCs IL-22 IC50
Procedure: Cryopreserved human Peripheral Blood Mononuclear cells (PBMCs) from healthy adult donors were obtained from Zen Bio, Inc (Cat No. SER-PBMC-F). Cells were cultured in 96-well plates with lymphocyte media (Cat No. LYMPH-1) and were pre-treated with test materials (≤100 μM) for 2 hours and later co-treated with test materials and anti-CD3/CD28 beads (Thermo-Fisher; Cat No. 11131D) and 50 ng/mL recombinant human IL-4 (R&D Systems® #204-IL) for 48 hours at 37° C. and 5% CO2. After incubation, cell media supernatants were harvested and used to measure cytokine levels (IL-22, IL-31) using ELISA kits (R&D Systems® #DY782, #DY2824). Results were represented as percent of inhibition relative to untreated and anti-CD3/CD28+IL-4 only treated cells. IC50 values were determined by non-linear regression analysis using the four-parameter logistic equation.

IL-8 = assay: P. acnes-induced IL-8 protein on human PBMCs (ELISA); assay type: cell-based; details: PBMCs + live P. acnes 1:1, test material 30 PM, 24 hours
Procedure: as §1

TSLP = assay: S. aureus-induced TSLP on NHEKs; assay type: cell-based; details: Homo sapiens; NHEK, live S. aureus ATCC 33591 1:1, 24 hours, ELISA; read-out: S. aureus-NHEK TSLP Protein IC50
Procedure: Normal human epidermal keratinocytes (NHEKs) from neonatal donors were obtained from Thermo-Fisher (Cat No. C-001-5C). Cells were cultured in 96-well plates for 24 hours with EpiLife media (Cat No. MEPI500CA) supplemented with keratinocytes growth supplement (Cat No. 50015). On Day 2, media was removed and replaced with supplement-depleted medium for 24 hours. On Day 3, media was removed and cells were pre-treated with test materials (≤[…]) for 2 hours and later co-treated with test materials and live S. aureus (ATCC® 33591) at 1:1 NHEK:bacteria ratio for 24 hours at 37° C. and 5% CO2. After incubation, cell media supernatants were harvested and used to measure TSLP levels using ELISA kit (R&D Systems® #DY1398). Results were represented as percent of inhibition relative to untreated and S. aureus-only treated cells. IC50 values were determined by non-linear regression analysis using the four-parameter logistic equation.

IL-6 = assay: Nickel (Ni2+)-induced IL-6 on HDMECs; assay type: cell-based; details: Homo sapiens; HDMEC, 1 mM NiSO4, 6 hours, ELISA; read-out: Nickel-HDMECs IL-6 Protein IC50
Procedure: Human Dermal Microvascular Endothelial cells (HDMECs) from human skin tissues were obtained from Sciencell, Inc. (Cat No. 2000). Cells were cultured in 96-well plates for 24 hours with ECM media (Cat No. 1001) supplemented with endothelial cell growth supplement (Cat No. 50015) and 5% v/v FBS. On Day 2, media was removed and replaced with supplement-depleted medium for 24 hours. On Day 3, media was removed and cells were pre-treated with test materials (≤10 μM) for 2 hours and later co-treated with test materials and 1 mM NiSO4 (Sigma-Aldrich, Cat No. 227676) for 6 hours at 37° C. and 5% CO2. After incubation, cell media supernatants were harvested and used to measure IL-6 levels using ELISA kit (BD Biosciences® #555220). Results were represented as percent of inhibition relative to untreated and NiSO4-only treated cells. IC50 values were determined by non-linear regression analysis using the four-parameter logistic equation.

| SMILES | inhibition at 30 pM (IL-1b) [%] | pIC50 (IL-17) | hBD2 gene expression (DEFB4B (hBD2)) | MBC (P. acnes (ATCC 6919)) [µg/mL] | pIC50 (IL-22) | IL-8 Protein % inhibition (IL-8) [%] | pIC50 (TSLP) | pIC50 (IL-6) |
| --- | --- | --- | --- | --- | --- | --- | --- | --- |
| C/C(=C\CSC[C@H](NC(=O)N1CCC[C@H]1C(=O)O)C(=O)O)CCCC(C)CCCC(C)CCCC(C)C (stereo partly shown) [Compound E] | 82 | 4.94 | 1.1 Fold-expression/untreated cells | 7 (≈ 12.9 µM) | < 4.60 | 67 | – | – |
| C/C(=C\CSCC(NC(=O)NCC(=O)O)C(=O)O)CCCC(C)CCCC(C)CCCC(C)C (stereo not shown) [A] | 38 | – | – | – | – | – | 5.05 | 7.52 |
| C/C(=C\CSC[C@H](NC(=O)COCC(=O)O)C(=O)O)CCCC(C)CCCC(C)CCCC(C)C (stereo partly shown) [Compound T] | – | 4.16 | – | – | < 4.60 | – | 5.00 | 8.00 |
| N#Cc1ccc(Oc2ccc3c(c2)COB3O)cc1 [AN2728, reference compound] | – | 5.51 | – | – | 5.70 | – | 5.30 | 4.00 |
| C/C(=C\CSC[C@H](NC(=O)N(C)CC(=O)O)C(=O)O)CCCC(C)CCCC(C)CCCC(C)C (stereo partly drawn) [Compound C, (2R)-2-{[(carboxymethyl)(methyl)carbamoyl]amino}-3-{[(2E)-3,7,11,15-tetramethylhexadec-2-en-1-yl]sulfanyl}propanoic acid] | 36 | 6.30 | 0.7 Fold-expression/untreated cells | 22 (≈ 42.7 µM) | < 4.60 | 8 | 5.52 | 7.70 |
| C/C(=C\CSCC(NC(=O)N(CC(=O)O)CC(=O)O)C(=O)O)CCCC(C)CCCC(C)CCCC(C)C (stereo not shown) [Compound G] | 91 | 4.03 | 2.5 Fold-expression/untreated cells | 1 (≈ 1.79 µM) | < 4.60 | 74 | – | – |
